Several values for one entry are separate records, joined by “and”; a condition that tells them apart may be missing. Identical values can stand only once. Like-named read-outs stand apart in the source and are kept apart here.
How the values were obtained:
[1] = target: human D-amino acid oxidase (Homo sapiens, UniProt P14920); experiment: Inhibition of human D-amino acid oxidase; assay type: biochemical; conditions: read-out: IC50 for inhibiting human D-amino acid oxidase
2019-nCoV 3CLPro = 2019-nCoV 3CLPro (Severe acute respiratory syndrome coronavirus 2, UniProt P0DTD1); experiment: 2019-nCoV 3CLPro fluorogenic protease activity assay at 3 μM (35 nM protease, pH 7.0); assay type: biochemical; conditions: for remaining activity at 3 µM / Residual Protease Activity (%) 3 μM: 3 μM sample; for remaining activity at 3 µM: read-out: Residual Protease Activity (%) 3 μM
SARS-CoV-2 3CLPro [2] = target: T1, SARS-CoV-2 3CLPro (Severe acute respiratory syndrome coronavirus 2, UniProt P0DTD1); experiment: Native-PAGE mobility shift binding with 3CLPro; conditions: 62.5-1000 μM sample mixed with 40 μM 3CLPro, 4° C., 3 hours
SARS-CoV-2 [3] = conditions: Choy et al., 2020; qRT-PCR, supernatant; MOI = 0.02; cited from earlier work
SARS-CoV-2 3CLPro [4] = target: T1, SARS-CoV-2 3CLPro; experiment: biochemical
SARS-CoV-2 [5] = experiment: SARS-CoV-2 virucidal assay in Vero E6 cells (qPCR of RdRP gene); assay type: cell-based; conditions: MOI 0.01, 24 h
[6] = 2020, cited from earlier work
[7] = target: T2, SARS-CoV-2 viral 3CL protease (Severe acute respiratory syndrome coronavirus 2, UniProt P0DTD1); experiment: 3CL protease activity assay, concentration series of SNB01 (IC50); assay type: biochemical
[8] = target: T2, SARS-CoV-2 viral 3CL protease; experiment: biochemical; conditions: read-out: Residual Protease Activity (%) 1 μM
[9] = IC50, Table 34, final DMSO concentration 0.05%
[10] = Table 34, final DMSO concentration 0.05%, read-out: IC50 (converted)
[11] = Table 34, final DMSO concentration 0.40%, read-out: IC50 (converted)
[12] = 50% inhibition concentration (IC50) against SARS-CoV-2 3CLPro, samples of Table 34, 50 nM protease, 6 μM substrate

human D-amino acid oxidase, sequence (P14920 whole entry): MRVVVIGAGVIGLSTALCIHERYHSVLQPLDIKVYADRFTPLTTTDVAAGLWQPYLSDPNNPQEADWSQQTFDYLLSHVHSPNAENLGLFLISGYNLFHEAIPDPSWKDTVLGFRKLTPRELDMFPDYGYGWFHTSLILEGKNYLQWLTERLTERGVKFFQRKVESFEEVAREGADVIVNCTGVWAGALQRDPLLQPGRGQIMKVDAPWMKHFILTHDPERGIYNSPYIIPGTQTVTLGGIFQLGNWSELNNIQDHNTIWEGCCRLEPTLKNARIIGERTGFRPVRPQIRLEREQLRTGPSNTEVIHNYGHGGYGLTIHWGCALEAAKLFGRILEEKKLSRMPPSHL

**Q.** For `O=C(O)c1cc(O)c(O)c(OC(=O)c2cc(O)c(O)c(OC(=O)c3cc(O)c(O)c(O)c3)c2)c1` [Compound 14], which IC50 [1] is on record?
**A.** The IC50 was 299 nM.

**Q.** What does the source list for `O=C(O)c1cc(O)c(O)c(OC(=O)c2cc(O)c(O)c(OC(=O)c3cc(O)c(O)c(OC(=O)c4cc(O)c(O)c(OC(=O)c5cc(O)c(O)c(O)c5)c4)c3)c2)c1` [Compound 18]?
**A.** IC50 [1]: 121 nM; remaining activity at 3 µM (2019-nCoV 3CLPro): 56%; inhibition at 3 µM (2019-nCoV 3CLPro; 3 μM, read-out: inhibition activity against 2019-nCoV 3CLpro): 44%

**Q.** With `O=C(O)c1cc(O)c(O)c(O)c1` [GA, gallic acid, reference compound] as the molecule, how does the “binding to 3CLPro by native-PAGE mobility shift” value (SARS-CoV-2 3CLPro [2]) read?
**A.** The value was “no significant binding”.

**Q.** For `Cc1cccc(C)c1OCC(=O)N[C@@H](Cc1ccccc1)[C@@H](O)C[C@H](Cc1ccccc1)NC(=O)[C@H](C(C)C)N1CCCNC1=O` [Lopinavir], which EC50 (SARS-CoV-2 [3]) is on record?
**A.** Its EC50 is 26100 nM.

**Q.** And the “Therapeutic Index (CC50/EC50)” value (SARS-CoV-2 [3])?
**A.** The value was 1.906.

**Q.** Which IC50 (SARS-CoV-2 3CLPro [4]; [9]) does the source give for `O=C(Oc1cc(OC(=O)c2cc(O)c(O)c(OC(=O)c3cc(O)c(O)c(OC(=O)c4cc(O)c(O)c(O)c4)c3)c2)cc(OC(=O)c2cc(O)c(O)c(OC(=O)c3cc(O)c(O)c(OC(=O)c4cc(O)c(O)c(O)c4)c3)c2)c1)c1cc(O)c(O)c(OC(=O)c2cc(O)c(O)c(OC(=O)c3cc(O)c(O)c(O)c3)c2)c1` [Phloroglucinol 9G] here?
**A.** The IC50 was 1450 nM.

**Q.** What about the IC50 (SARS-CoV-2 3CLPro [4]; [10]) of the same molecule?
**A.** Its IC50 is 1450 nM.

**Q.** For `O=C(Oc1cc(OC(=O)c2cc(O)c(O)c(OC(=O)c3cc(O)c(O)c(OC(=O)c4cc(O)c(O)c(OC(=O)c5cc(O)c(O)c(OC(=O)c6cc(O)c(O)c(O)c6)c5)c4)c3)c2)cc(OC(=O)c2cc(O)c(O)c(OC(=O)c3cc(O)c(O)c(OC(=O)c4cc(O)c(O)c(OC(=O)c5cc(O)c(O)c(OC(=O)c6cc(O)c(O)c(O)c6)c5)c4)c3)c2)c1)c1cc(O)c(O)c(OC(=O)c2cc(O)c(O)c(OC(=O)c3cc(O)c(O)c(OC(=O)c4cc(O)c(O)c(OC(=O)c5cc(O)c(O)c(O)c5)c4)c3)c2)c1` [Phloroglucinol 15G], which IC50 (SARS-CoV-2 3CLPro [4]; [11]) is on record?
**A.** Its IC50 is 934 nM.

**Q.** For `CCC(CC)COC(=O)[C@H](C)N[P@](=O)(OC[C@H]1O[C@@](C#N)(c2ccc3c(N)ncnn23)[C@H](O)[C@@H]1O)Oc1ccccc1` [Remdesivir], which “EC99 against SARS-CoV-2 infection” value (SARS-CoV-2 [5]; Vero E6, cell layer) is on record?
**A.** Its value is 15 µM and 15.000 µM.

**Q.** And the “EC99 against SARS-CoV-2 infection” value (SARS-CoV-2 [5]; Vero E6, supernatant)?
**A.** Its value is 15 µM and 15.000 µM.

**Q.** And the CC50 ([6]; Choy et al.)?
**A.** Its CC50 is greater than 100000 nM.

**Q.** What about the CC50 ([6]; Jeon et al.) of the same molecule?
**A.** Its CC50 is greater than 25000 nM.

**Q.** And the CC50 ([6]; Pruijssers et al.)?
**A.** The CC50 was greater than 10000 nM.

**Q.** What about the CC50 ([6]; Runfeng et al.) of the same molecule?
**A.** The CC50 was 111000 nM.

**Q.** And the CC50 ([6]; Wang et al.)?
**A.** The CC50 was greater than 100000 nM.

**Q.** With `O=C(OC[C@H]1O[C@@H](OC(=O)c2cc(O)c(O)c(OC(=O)c3cc(O)c(O)c(O)c3)c2)[C@H](OC(=O)c2cc(O)c(O)c(OC(=O)c3cc(O)c(O)c(O)c3)c2)[C@@H](OC(=O)c2cc(O)c(O)c(OC(=O)c3cc(O)c(O)c(O)c3)c2)[C@@H]1OC(=O)c1cc(O)c(O)c(OC(=O)c2cc(O)c(O)c(O)c2)c1)c1cc(O)c(O)c(OC(=O)c2cc(O)c(O)c(O)c2)c1` [SNB01] as the molecule, how does the IC50 [7] read?
**A.** The IC50 was roughly 474 nM.

**Q.** With `O=C(OC[C@H]1O[C@H](OC(=O)c2cc(O)c(O)c(O)c2)[C@H](OC(=O)c2cc(O)c(O)c(O)c2)[C@@H](OC(=O)c2cc(O)c(O)c(O)c2)[C@@H]1OC(=O)c1cc(O)c(O)c(O)c1)c1cc(O)c(O)c(O)c1` [Sample 1] as the molecule, how does the remaining activity at 3 µM (2019-nCoV 3CLPro) read?
**A.** Its remaining activity at 3 µM is 52%.

**Q.** For `O=C(OC[C@H]1O[C@@H](OC(=O)c2cc(O)c(O)c(O)c2)[C@H](OC(=O)c2cc(O)c(O)c(O)c2)[C@@H](OC(=O)c2cc(O)c(O)c(O)c2)[C@@H]1OC(=O)c1cc(O)c(O)c(O)c1)c1cc(O)c(O)c(O)c1` [Sample 2, (2S,3R,4S,5R,6R)-3,4,5-tris(3,4,5-trihydroxybenzoyloxy)-6-((3,4,5-trihydroxybenzoyloxy)methyl)oxan-2-yl 3,4,5-trihydroxybenzoate], which remaining activity at 3 µM (2019-nCoV 3CLPro) is on record?
**A.** Its remaining activity at 3 µM is 55%.

**Q.** And the remaining activity at 1 µM [8]?
**A.** Its remaining activity at 1 µM is 57%.

**Q.** For `O=C(OC[C@H]1O[C@H](OC(=O)c2cc(O)c(O)c(OC(=O)c3cc(O)c(O)c(O)c3)c2)[C@H](OC(=O)c2cc(O)c(O)c(OC(=O)c3cc(O)c(O)c(O)c3)c2)[C@@H](OC(=O)c2cc(O)c(O)c(OC(=O)c3cc(O)c(O)c(O)c3)c2)[C@@H]1OC(=O)c1cc(O)c(O)c(OC(=O)c2cc(O)c(O)c(O)c2)c1)c1cc(O)c(O)c(OC(=O)c2cc(O)c(O)c(O)c2)c1` [Sample 3], which IC50 (SARS-CoV-2 3CLPro [4]; [12]) is on record?
**A.** Its IC50 is less than 882 nM.

**Q.** And the IC50 (SARS-CoV-2 3CLPro [4]; [9])?
**A.** Its IC50 is 666 nM and 665 nM.

**Q.** And the “Residual Protease Activity (%) 3 μM” value (2019-nCoV 3CLPro)?
**A.** Its value is −2%.

**Q.** And the remaining activity at 1 µM ([8]; 1 μM sample)?
**A.** The remaining activity at 1 µM was 39%.

**Q.** What does the source list for `O=C(OC[C@H]1O[C@@H](OC(=O)c2cc(O)c(O)c(OC(=O)c3cc(O)c(O)c(O)c3)c2)[C@H](OC(=O)c2cc(O)c(O)c(OC(=O)c3cc(O)c(O)c(O)c3)c2)[C@@H](OC(=O)c2cc(O)c(O)c(OC(=O)c3cc(O)c(O)c(O)c3)c2)[C@@H]1OC(=O)c1cc(O)c(O)c(OC(=O)c2cc(O)c(O)c(O)c2)c1)c1cc(O)c(O)c(OC(=O)c2cc(O)c(O)c(O)c2)c1` [Sample 4, (2S,3R,4S,5R,6R)-3,4,5-tris(3,4-dihydroxy-5-(3,4,5-trihydroxybenzoyloxy)benzoyloxy)-6-((3,4-dihydroxy-5-(3,4,5-trihydroxybenzoyloxy)benzoyloxy)methyl)oxan-2-yl 3,4-dihydroxy-5-(3,4,5-trihydroxybenzoyloxy)benzoate]?
**A.** IC50 (SARS-CoV-2 3CLPro [4]; [12]): < 882 nM; IC50 (SARS-CoV-2 3CLPro [4]; [9]): 806 nM; binding to 3CLPro by native-PAGE mobility shift (SARS-CoV-2 3CLPro [2]): significant binding; Residual Protease Activity (%) 3 μM (2019-nCoV 3CLPro): −9%; remaining activity at 1 µM ([8]; 1 μM sample): 43%

**Q.** Which results are given for `O=C(OC[C@H]1O[C@@H](OC(=O)c2cc(O)c(O)c(OC(=O)c3cc(O)c(O)c(OC(=O)c4cc(O)c(O)c(O)c4)c3)c2)[C@H](OC(=O)c2cc(O)c(O)c(OC(=O)c3cc(O)c(O)c(OC(=O)c4cc(O)c(O)c(O)c4)c3)c2)[C@@H](OC(=O)c2cc(O)c(O)c(OC(=O)c3cc(O)c(O)c(OC(=O)c4cc(O)c(O)c(O)c4)c3)c2)[C@@H]1OC(=O)c1cc(O)c(O)c(OC(=O)c2cc(O)c(O)c(OC(=O)c3cc(O)c(O)c(O)c3)c2)c1)c1cc(O)c(O)c(OC(=O)c2cc(O)c(O)c(OC(=O)c3cc(O)c(O)c(O)c3)c2)c1` [Sample 6, (2S,3R,4S,5R,6R)-6-(((3-((3,4-dihydroxy-5-((3,4,5-trihydroxybenzoyl)oxy)benzoyl)oxy)-4,5-dihydroxybenzoyl)oxy)methyl)tetrahydro-2H-pyran-2,3,4,5-tetrayl tetrakis(3-((3,4-dihydroxy-5-((3,4,5-trihydroxybenzoyl)oxy)benzoyl)oxy)-4,5-dihydroxybenzoate)]?
**A.** IC50 (SARS-CoV-2 3CLPro [4]; [12]): < 609 nM; IC50 (SARS-CoV-2 3CLPro [4]; [9]): 602 nM; IC50 (SARS-CoV-2 3CLPro [4]; [10]): 602 nM; binding to 3CLPro by native-PAGE mobility shift (SARS-CoV-2 3CLPro [2]): significant binding; remaining activity at 1 µM ([8]; 1 μM sample): 39%

**Q.** With `O=C(Oc1ccccc1)c1cc(O)c(O)c(OC(=O)c2cc(O)c(O)c(OC(=O)c3cc(O)c(O)c(O)c3)c2)c1` [phenol 3G] as the molecule, how does the IC50 (SARS-CoV-2 3CLPro [4]; IC50, Table 34, final DMSO concentration 0.40%) read?
**A.** Its IC50 is 6440 nM.

**Q.** What about the IC50 (SARS-CoV-2 3CLPro [4]; [11]) of the same molecule?
**A.** Its IC50 is 6440 nM.
